The test system of data set [1] is DLL4. Put plainly: Western blot analysis of VEGF-induced DLL4 protein level in endothelial cells. In kind it is cell-based, human. How it is done:
(§1) Proteins were extracted from cultured cells using RIPA lysis buffer (Thermo Scientific, Waltham, MA, USA). The protein extracts were separated using SDS-PAGE and transferred to nitrocellulose membranes (Whatman, Maidstone, England). The membranes were blocked with 5% skim milk in Tris-buffered saline containing 0.1% Tween-20 for 1 hour at room temperature. After blocking, the membranes were incubated with specific primary antibodies overnight at 4°C, and then incubated with secondary antibodies for 1 hour at room temperature. Proteins were detected using the Enhanced Chemiluminescence Kit (Bio-Rad, Hercules, CA, USA) according to the manufacturer's instructions. Primary antibodies against HIF-1α (BD Biosciences, San Diego, CA, USA), VEGF (Santa Cruz Biotechnology, Santa Cruz, CA, USA), CXCR4 (Abcam, Cambridge, UK), CA9 (Abcam), DLL4 (Santa Cruz Biotechnology), NOTCH1 (Thermo Scientific), and β-actin (Santa Cruz Biotechnology) were used.

For the next data set, the system named is HEK293T cells. In words: Lactate dehydrogenase cytotoxicity assay. In kind it is cell-based, human. As to conditions: LDH release, hypoxia 24 h, compared to vehicle treatment (FIG. 3b). How it is done:
HEK293T cells were seeded at 2 × 10^3 cells/well in 96-well plates and cultured at 37 °C for 24 h. Next, the cells were treated with various concentrations of steppogenin for 24 h under hypoxia conditions. Lactate dehydrogenase (LDH) release values were evaluated using the Cytotoxicity LDH Assay Kit-WST (DOJINDO) according to the manufacturer's instructions. Cytotoxicity was measured using a microplate reader (Infinite M200 Pro; TECAN) at 490 nm.
Background: Release of lactate dehydrogenase indicates damage to the cell membrane.

For data set [2], the system named is HIF-1α target genes VEGF, GLUT1, CXCR4, and CA9. Put plainly: Western blot analysis of HIF-1α target gene protein levels. The format is cell-based. As to conditions: hypoxia, compared to vehicle control group (FIG. 4d). How it is done:
as §1

The subject of data set [3] is DLL4. In words: DLL4-luciferase dual-luciferase assay in EA.hy926 cells with VEGF. The format is cell-based, human. As to the method:
To perform the HRE-luciferase assay, HEK293T cells were seeded in a 96-well plate at a density of 5×10^3 cells/well and cultured at 37°C. Next, cells were co-transfected with pGL3-HRE-luciferase plasmid and pRL-SV40 Renilla plasmid containing 5 copies of HRE of human VEGF gene using a vivamagic transfection reagent (Vivagen, Seongnam, Korea) (Kwon et al., 2015). After 24 h, cells were pretreated with various concentrations of natural compounds for 1 h and then incubated under hypoxia conditions for 24 h. To perform the DLL4-luciferase assay, EA.hy926 cells were seeded in 24-well plates at a density of 4 × 10^4 cells/well and cultured at 37 °C for 24 h. Cells were co-transfected with pGL3-DLL4 luciferase and pRL-SV40 Renilla plasmids using Lipofectamine 2000 (Invitrogen) and cultured at 37°C for 24 h. Next, the cells were incubated with various concentrations of natural compounds for 1 h and then incubated for 24 h in the presence or absence of VEGF (10 ng/mL). The luminescence of HRE- and DLL4-promoter activities was detected using a microplate reader and the Dual-Luciferase Assay Kit (Promega, Madison, WI, USA) according to the manufacturer's instructions. The luciferase activity of the natural compounds was normalized to Renilla luciferase activity.

In another data set the test system is HIF-1α. In words: Western blot analysis of HIF-1α protein expression under hypoxia. The format is cell-based, human. As to conditions: for HIF-1α protein levels: dose-dependent, maximum dose 3 µM (FIG. 4a). How it is done:
as §1
To determine the effect of the selected natural compounds on HIF-1α protein expression, Western blotting was performed on HEK293T cells. […] Accordingly, the effect of five compounds with HIF-1α inhibitory activity on DLL4 reporter activity in ECs was also investigated. […] Therefore, Compound #57 was selected as a potential inhibitor of HIF-1α and DLL4.

Data set [4] concerns Lewis lung carcinoma (LLC)-allografted tumor models. In words: Lewis lung carcinoma allograft tumor model with immunohistochemical analysis. The format is in vivo, C57BL/6J mice. As to the method: Six-week-old adult male C57BL/6J mice (SLC, Japan) were used and housed in a specific pathogen-free facility with an individual ventilation system at Kyungpook National University.
To manufacture Lewis lung carcinoma (LLC)-allografted tumor models, LLC cell suspensions (5 × 10^5 cells in 200 µL of serum-free culture medium) were subcutaneously transplanted into the dorsal flank area of 6-week-old male C57BL/6J mice. After inoculating the LLC cells, the mice were administered 17-AAG (25 mg/kg) or steppogenin (2 mg/kg) via intraperitoneal injection at various time points. Next, tumor volumes were measured according to the following formula: V = 0.5 × A × B^2, where A and B represent the longest and shortest dimensions, respectively. Finally, the mice were anesthetized and tissues were collected for further analysis.
For immunohistochemical analysis, collected tumor or tissue samples were fixed in 4% paraformaldehyde and embedded in tissue-freezing medium (Leica, Wetzlar, Germany). Frozen blocks were cut into 10 µm sample sections, blocked with 3% BSA in PBST (0.3% Triton X-100 in PBS), and incubated overnight at 4 °C with appropriate primary antibodies. Primary antibodies were as follows: anti-CD34 (Boster Bio, CA, USA), anti-DLL4 (R&D Systems, MN, USA), anti-pimonidazole (Hypoxyprobe-1, HPI, MA, USA), anti-CD3 (Abcam), anti-CD4 (Invitrogen), and anti-CD8 (Invitrogen). After several washes, the samples were incubated with recommended fluorophore-tagged secondary antibodies for 1 hour at room temperature. Next, cell nuclei were stained using Antifade Mounting Medium containing DAPI (Vector Laboratories, Burlingame, CA). Immunofluorescence images were acquired using a Zeiss confocal microscope (Carl Zeiss, Germany). Next, pimonidazole hydrochloride (60 mg/kg; Hypoxyprobe-1, HPI) was injected intravenously through the tail vein of mice and anesthetized 90 minutes later. Finally, tumor tissues were collected for further analysis.
To determine whether steppogenin induces vascular normalization, T-cell infiltration in tumor tissues was examined.

Where [5] appears, read: ECs, VEGF treatment, screening (FIG. 2c).
[6] abbreviates: immunohistochemical staining, compared to control group, 17-AAG 25 mg/kg, steppogenin 2 mg/kg (FIG. 6c).
Setting [7] is: tumor tissues, steppogenin 2 mg/kg (FIG. 6e).

The values that follow come from patent publication EP4574147A1, “COMPOSITION FOR PREVENTING, AMELIORATING, OR TREATING CANCER COMPRISING STEPPOGENIN AS ACTIVE INGREDIENT” (Kyungpook National University Industry-Academic Cooperation …, priority 2022, dated 2024).

Usually IC50 stands for the concentration that gives 50% inhibition. High values mean lower potency, low ones higher potency.

For the molecule `O=C1C[C@@H](c2ccc(O)cc2O)Oc2cc(O)cc(O)c21` [steppogenin, (2S)-2-(2,4-dihydroxyphenyl)-5,7-dihydroxy-2,3-dihydrochromen-4-one], the “DLL4 protein level induced by VEGF” value in the data set on DLL4 [1] (setting [5]) is “significantly suppressed”. For the same molecule, the “VEGF-induced DLL4 protein levels” value with DLL4 [1] (HUVECs (FIG. 5a)) is on record as “dose-dependently reduced”. The cytotoxicity entry with HEK293T cells is “not altered”. Besides, in data set [2], the “protein levels of CA9” value is given as “suppressed”, the “protein levels of CXCR4” value is “suppressed” and the “protein levels of VEGF” value is on record as “suppressed”. Moreover, the DLL4-luciferase reporter activity result with DLL4 [3] (0.3 to 10.0 µM, VEGF-treated (FIG. 3e)) was “significantly reduced”. The “DLL4 luciferase activity induced by VEGF” value with DLL4 [3] (setting [5]) is listed as “significantly suppressed”. Moreover, in the data set on DLL4 [3] (Homo sapiens, EA.hy 926, EA.hy926 cells (FIG. 3f)), the midpoint of inhibition, the IC50, lay at 8.46 ± 1.08 µM. For the same molecule, the HIF-1α protein levels result with HIF-1α (A549, hypoxia) is “significantly inhibited”. Further, the HIF-1α protein levels result in the data set on HIF-1α (ARPE19, hypoxia) is on record as “significantly inhibited”. Further, the HIF-1α protein expression entry in the data set with HIF-1α (HEK293T cells, hypoxia, screening of selected compounds (FIG. 2b)) is recorded as “inhibited”. In addition, in the data set with HIF-1α (HEK293T, hypoxia), the HIF-1α protein levels entry is “significantly inhibited”. The “average body weights between the groups during the administration period” value in data set [4] (17-AAG 25 mg/kg, steppogenin 2 mg/kg, intraperitoneal (FIG. 6b)) is given as “no significant difference”. For the same molecule, in data set [4] (17-AAG 25 mg/kg, steppogenin 2 mg/kg, intraperitoneal, days 7, 9, 11, 13, 15 (FIG. 6a)), the tumor growth entry is “significantly inhibited”. Also, in data set [4] (setting [6]), the “HIF-1α expression level in tumors” value was “significantly reduced” and the “hypoxic region in tumors” value was “significantly reduced”. Further, in data set [4] (steppogenin 2 mg/kg, compared to control tissue (FIG. 6d)), the “microvessel density analyzed using CD34 antibody” value is “significantly reduced”. In data set [4] (setting [7]), the “infiltration of CD3+ T cells” value is given as “significantly increased” and the “ratio of CD8+ to CD4+ T cells in tumors” value is “decreased”.
